Measured values taken from PMC10892984, “Novel Antineoplastic Inducers of Mitochondrial Apoptosis in Human Cancer Cells” (Molecules, 2024).

Columns and labels:
T-47D = conditions: 48 h
[1] = Homo sapiens, 48 h, read-out: LC50

c1cc(CNC23CC4CC(CC(C4)C2)C3)cc(C[N+](Cc2cccc(CNC34CC5CC(CC(C5)C3)C4)c2)(Cc2cccc(CNC34CC5CC(CC(C5)C3)C4)c2)Cc2cccc(CNC34CC5CC(CC(C5)C3)C4)c2)c1 (stereo not drawn) [Compound 1, tetrakis{3-[(tricyclo[3.3.1.1^3,7]decan-1-ammonio)methyl]benzyl}ammonium pentachloride]
GI50 (SF-268; Homo sapiens, SF-268, 48 h): 1.53 µM | CC50 (SF-268; Homo sapiens, SF-268, 48 h, read-out: LC50): 30.8 µM | TGI (SF-268; SF-268, CNS cancer (brain tumor), mutant p53, 48 h): 5.41 µM | TGI (HCT-116; HCT-116, colon cancer, wild-type p53, 48 h): 2.01 µM | GI50 (HCT-116; Homo sapiens, HCT-116, 48 h): 0.728 µM | CC50 (HCT-116; Homo sapiens, HCT-116, 48 h, read-out: LC50): 6.47 µM | GI50 (NCI/ADR-RES; Homo sapiens, 48 h): 1.44 µM | CC50 (NCI/ADR-RES; [1]): > 50 µM | TGI (NCI/ADR-RES; ovarian cancer, mutant p53, 48 h): 4.55 µM | TGI (COLO 205; COLO 205, colon cancer, mutant p53, 48 h): 3.13 µM | GI50 (COLO 205; Homo sapiens, COLO 205, 48 h): 1.09 µM | CC50 (COLO 205; Homo sapiens, COLO 205, 48 h, read-out: LC50): 24.8 µM | GI50 (MDA-MB-468; Homo sapiens, MDA-MB-468, 48 h): 0.797 µM | CC50 (MDA-MB-468; Homo sapiens, MDA-MB-468, 48 h, read-out: LC50): 3.55 µM | TGI (MDA-MB-468; MDA-MB-468, breast cancer, mutant p53, 48 h): 1.68 µM | TGI (A549; A549, non-small-cell lung cancer, wild-type p53, 48 h): 8.70 µM | GI50 (A549; Homo sapiens, A549, 48 h): 2.13 µM | CC50 (A549; Homo sapiens, A549, 48 h, read-out: LC50): 24.2 µM | GI50 (MCF7; Homo sapiens, MCF7, 48 h): 1.07 µM | CC50 (MCF7; Homo sapiens, MCF7, 48 h, read-out: LC50): 45.8 µM | TGI (MCF7; MCF7, breast cancer, wild-type p53, 48 h): 6.19 µM | GI50 (MOLT-4; Homo sapiens, MOLT-4, 48 h): 1.32 µM | CC50 (MOLT-4; Homo sapiens, MOLT-4, 48 h, read-out: LC50): > 50 µM | TGI (MOLT-4; MOLT-4, leukemia, mutant p53, 48 h): 4.09 µM | TGI (A498; A498, renal cancer, wild-type p53, 48 h): 7.05 µM | GI50 (A498; Homo sapiens, A498, 48 h): 1.19 µM | CC50 (A498; Homo sapiens, A498, 48 h, read-out: LC50): 21.2 µM | GI50 (IGROV1; Homo sapiens, IGROV-1, 48 h): 0.886 µM | CC50 (IGROV1; Homo sapiens, IGROV-1, 48 h, read-out: LC50): 8.65 µM | TGI (IGROV1; IGROV1, ovarian cancer, mutant p53, 48 h): 2.34 µM | GI50 (OVCAR-8; Homo sapiens, OVCAR-8, 48 h): 2.07 µM | CC50 (OVCAR-8; Homo sapiens, OVCAR-8, 48 h, read-out: LC50): 35.3 µM | TGI (OVCAR-8; OVCAR-8, ovarian cancer, mutant p53, 48 h): 8.48 µM | TGI (CAKI-1; CAKI-1, renal cancer, wild-type p53, 48 h): 4.70 µM | GI50 (CAKI-1; Homo sapiens, CAKI-1, 48 h): 1.28 µM | CC50 (CAKI-1; Homo sapiens, CAKI-1, 48 h, read-out: LC50): 15.4 µM | GI50 (RPMI-8226; Homo sapiens, RPMI-8226, 48 h): 1.32 µM | CC50 (RPMI-8226; Homo sapiens, RPMI-8226, 48 h, read-out: LC50): > 50 µM | TGI (RPMI-8226; RPMI-8226, leukemia, mutant p53, 48 h): 3.99 µM | GI50 (OVCAR-3; Homo sapiens, OVCAR-3, 48 h): 1.04 µM | CC50 (OVCAR-3; Homo sapiens, OVCAR-3, 48 h, read-out: LC50): 9.97 µM | TGI (OVCAR-3; OVCAR-3, ovarian cancer, mutant p53, 48 h): 2.82 µM | TGI (HCC-2998; HCC-2998, colon cancer, mutant p53, 48 h): 5.31 µM | GI50 (HCC-2998; Homo sapiens, HCC 2998, 48 h): 1.22 µM | CC50 (HCC-2998; Homo sapiens, HCC 2998, 48 h, read-out: LC50): 22.6 µM | GI50 (T-47D; Homo sapiens, T47D): 1.34 µM | CC50 (T-47D; Homo sapiens, T47D, read-out: LC50): 38 µM | TGI (T-47D; T-47D, breast cancer, mutant p53): 6.72 µM | GI50 (SF-539; Homo sapiens, SF-539, 48 h): 1.01 µM | CC50 (SF-539; Homo sapiens, SF-539, 48 h, read-out: LC50): 7.59 µM | TGI (SF-539; SF-539, CNS cancer (brain tumor), mutant p53, 48 h): 2.48 µM | GI50 (UACC-62; Homo sapiens, UACC-62, 48 h): 1.16 µM | CC50 (UACC-62; Homo sapiens, UACC-62, 48 h, read-out: LC50): 14.2 µM | TGI (UACC-62; UACC-62, melanoma, wild-type p53, 48 h): 3.68 µM | GI50 (M14; Homo sapiens, M14, 48 h): 0.803 µM | CC50 (M14; Homo sapiens, M14, 48 h, read-out: LC50): 6.82 µM | TGI (M14; M14, melanoma, mutant p53, 48 h): 2.08 µM | GI50 (ACHN; Homo sapiens, 48 h): 0.874 µM | CC50 (ACHN; [1]): 5.55 µM | TGI (ACHN; renal cancer, wild-type p53, 48 h): 2.14 µM | GI50 (MDA-MB-435; Homo sapiens, MDA-MB-435, 48 h): 0.825 µM | CC50 (MDA-MB-435; Homo sapiens, MDA-MB-435, 48 h, read-out: LC50): 6.5 µM | TGI (MDA-MB-435; MDA-MB-435, melanoma, mutant p53, 48 h): 2.11 µM | GI50 (OVCAR-5; Homo sapiens, OVCAR-5, 48 h): 0.977 µM | CC50 (OVCAR-5; Homo sapiens, OVCAR-5, 48 h, read-out: LC50): 10.8 µM | TGI (OVCAR-5; OVCAR-5, ovarian cancer, p53 Lit. inconclusive, 48 h): 2.76 µM | GI50 (SNB-19; Homo sapiens, SNB-19, 48 h): 1.92 µM | CC50 (SNB-19; Homo sapiens, SNB-19, 48 h, read-out: LC50): 19.9 µM | TGI (SNB-19; SNB-19, CNS cancer (brain tumor), mutant p53, 48 h): 7.27 µM | GI50 (SK-MEL-5; Homo sapiens, SK-MEL-5, 48 h): 1.52 µM | CC50 (SK-MEL-5; Homo sapiens, SK-MEL-5, 48 h, read-out: LC50): 18.6 µM | TGI (SK-MEL-5; SK-MEL-5, melanoma, wild-type p53, 48 h): 6.28 µM | GI50 (SNB-75; Homo sapiens, SNB-75, 48 h): 2.34 µM | CC50 (SNB-75; Homo sapiens, SNB-75, 48 h, read-out: LC50): 27.9 µM | TGI (SNB-75; SNB-75, CNS cancer (brain tumor), mutant p53, 48 h): 9.73 µM | GI50 (SW-620; Homo sapiens, SW-620, 48 h): 1.25 µM | CC50 (SW-620; Homo sapiens, SW-620, 48 h, read-out: LC50): 17.2 µM | TGI (SW-620; SW-620, colon cancer, mutant p53, 48 h): 3.95 µM | GI50 (UO-31; Homo sapiens, UO-31, 48 h): 0.817 µM | CC50 (UO-31; Homo sapiens, UO-31, 48 h, read-out: LC50): 4.73 µM | TGI (UO-31; UO-31, renal cancer, wild-type p53, 48 h): 1.96 µM
